# In ChEMBL document CHEMBL5335789, “Tea-break with epigallocatechin gallate derivatives - Powerful polyphenols of great potential for medicine” (Eur J Med Chem, 2023):
# pIC50: −log10 of the molar value.
# Experiments:
# MCF7 [1] = assay: Antiproliferative activity against human MCF7 cells assessed as reduction in cell viability incubated for 72 hrs by MTT assay; format: functional, cell-based; conditions: MCF7, 72 h
# NCI-H292 = assay: Antiproliferative activity against human NCI-H292 cells expressing wild type EGFR assessed as reduction in cell viability incubated for 48 hrs by MTT assay; format: functional, cell-based; conditions: NCI-H292, 48 h
# NCI-H441 = assay: Antiproliferative activity against human NCI-H441 cells expressing wild type EGFR assessed as reduction in cell viability incubated for 48 hrs by MTT assay; format: functional, cell-based; conditions: NCI-H441, 48 h
# [2] = Antiproliferative activity against human NCI-H1781 cells expressing wild type EGFR assessed as reduction in cell viability incubated for 48 hrs by MTT assay; format: functional, cell-based; conditions: NCI-H1781, 48 h
# A549 [3] = assay: Antiproliferative activity against human A549 cells expressing wild type EGFR assessed as reduction in cell viability incubated for 48 hrs by MTT assay; format: functional, cell-based; conditions: A549, 48 h
# [4] = Inhibition of Streptococcus sobrinus glycosyl transferase
# U-266 [5] = assay: Antiproliferative activity against human U-266 cells assessed as reduction in cell viability incubated for 96 hrs by ATPlite assay; format: functional, cell-based; conditions: U-266, 96 h
# MDA-MB-231 [6] = assay: Anticancer activity against human MDA-MB-231 cells assessed as reduction in cell viability measured after 72 hrs by MTT assay; format: functional
# K562 = assay: Antiproliferative activity against human K562 cells assessed as reduction in cell viability incubated for 48 hrs by MTT assay; format: functional, cell-based; conditions: K562, 48 h
# U-266 [7] = assay: Anticancer activity against human U-266 cells assessed as inhibition of cell growth; format: functional, cell-based
# U-937 [8] = assay: Antiproliferative activity against human U-937 cells assessed as cell growth inhibition measured after 72 hrs; format: functional, cell-based; conditions: U-937, 72 h
# U-937 [9] = assay: Antiproliferative activity against human U-937 cells measured upto 72 hrs; format: functional, cell-based; conditions: U-937, 72 h
# LNCaP = assay: Antiproliferative activity against human LNCaP assessed as reduction in cell viability incubated for 72 hrs by MTT assay; format: functional, cell-based
# HL-60 = assay: Cytotoxicity against human HL-60 cells assessed as reduction in cell growth incubated for 48 hrs by MTT assay; format: functional, cell-based; conditions: HL-60, 48 h
# SMMC-7721 = assay: Cytotoxicity against human SMMC-7721 cells assessed as reduction in cell viability incubated for 48 hrs by MTT assay; format: functional, cell-based; conditions: SMMC-7721, 48 h
# A549 [10] = assay: Cytotoxicity against human A549 cells assessed as reduction in cell viability incubated for 48 hrs by MTT assay; format: functional, cell-based; conditions: A549, 48 h
# MCF7 [11] = assay: Cytotoxicity against human MCF7 cells assessed as reduction in cell viability incubated for 48 hrs by MTT assay; format: functional, cell-based; conditions: MCF7, 48 h
# BEAS-2B = assay: Cytotoxicity against human BEAS-2B assessed as reduction in cell viability incubated for 72 hrs by MTT assay; format: functional, cell-based
# MDA-MB-231 [12] = assay: Cytotoxicity against human MDA-MB-231 cells assessed as reduction in cell viability measured after 24 hrs by MTT assay; conditions: MDA-MB-231, 24 h
smiles,measurement,setting,value
COc1cccc(C(=O)O[C@H]2COc3cc(OC)cc(OC)c3C2)c1,pIC50,MCF7 [1],6.11
O=C(O[C@@H]1Cc2c(O)cc(O)cc2O[C@@H]1c1cc(O)c(O)c(O)c1)c1cc(O)c(OCc2cn([C@H]3O[C@H](CO)[C@@H](O)[C@H](O)[C@H]3O)nn2)c(O)c1,pIC50,NCI-H292,4.52
same,pIC50,NCI-H441,4.52
same,pIC50,[2],4.52
same,pIC50,A549 [3],4.52
O=C(O[C@@H]1Cc2c(O)cc(O)cc2O[C@@H]1c1cc(O)c(=O)c2c(O)c(O)cc([C@H]3Oc4cc(O)cc(O)c4C[C@H]3O)c2c1)c1cc(O)c(O)c(O)c1 [THEAFLAVIN MONOGALLATES],pIC50,[4],5.11
[N-]=[N+]=NC[C@@H]1O[C@H](c2c(O)cc(O)c3c2O[C@H](c2cc(O)c(O)c(O)c2)[C@H](OC(=O)c2cc(O)c(O)c(O)c2)C3)[C@H](O)[C@@H](O)[C@@H]1O,pIC50,U-266 [5],4.82
O=C(O[C@@H]1Cc2c(O)cc(O)cc2O[C@@H]1c1cc(O)c(=O)c2c(O)c(O)c(O)cc2c1)c1cc(O)c(O)c(O)c1,pIC50,[4],4.96
CC(=O)Oc1cc(OC(C)=O)c2c(c1)O[C@H](c1cc(OC(C)=O)c(OC(C)=O)c(OC(C)=O)c1)[C@H](OC(=O)c1cccc(F)c1)C2,Activity,MDA-MB-231 [6],70%
CCOc1cccc(C(=O)O[C@H]2COc3cc(OC)cc(OC)c3C2)c1,pIC50,MCF7 [1],5.09
CCCCCCCCCCCCCCCC(=O)Oc1cc([C@H]2Oc3cc(O)cc(O)c3C[C@H]2OC(=O)c2cc(O)c(O)c(O)c2)cc(O)c1O,pIC50,K562,4.77
COc1ccc2c(c1)O[C@H](c1cc(OC)c(O)c(OC)c1)[C@H](OC(=O)c1cc(O)c(O)c(O)c1)C2,pIC50,U-266 [7],6.19
O=C(Nc1c(-c2ccc(O)c(O)c2)oc2ccccc2c1=O)c1ccc(O)c(O)c1,pIC50,U-937 [8],4.43
same,pIC50,U-937 [9],6.42
O=C(O[C@@H]1Cc2c(O)cc(O)cc2O[C@@H]1c1ccc(O)c(O)c1)c1cc(O)c(O)c(O)c1 [EPICATECHIN GALLATE],pIC50,LNCaP,4.44
CCCC(=O)OC[C@H]1O[C@@H](Oc2c(O)cc(C(=O)O[C@@H]3Cc4c(O)cc(O)cc4O[C@@H]3c3cc(O)c(O)c(O)c3)cc2O)[C@H](OC(=O)CCC)[C@@H](OC(=O)CCC)[C@H]1OC(=O)CCC,pIC50,HL-60,4.64
same,pIC50,SMMC-7721,4.64
same,pIC50,A549 [10],4.64
same,pIC50,MCF7 [11],4.64
same,pIC50,BEAS-2B,4.40
CC(=O)Oc1cc(OC(C)=O)c2c(c1)O[C@H](c1cc(OC(C)=O)c(OC(C)=O)c(OC(C)=O)c1)[C@H](OC(=O)c1cc(OC(C)=O)c(OC(C)OC(=O)OC(C)C)c(OC(C)=O)c1)C2 (stereo partly drawn),CC50,MDA-MB-231 [12],53.9 µM
COc1cc([C@H]2Oc3cccc(OC)c3C[C@H]2OC(=O)c2cc(O)c(O)c(O)c2)cc(O)c1O,pIC50,U-266 [7],6.10
O=c1c(O)cc([C@H]2Oc3cc(O)cc(O)c3C[C@H]2O)cc2cc(O)c(O)c(O)c12,pIC50,[4],4.85
